The data set deals with users suffering with headaches. Kind of data set: Inhalation of pure AITC vapor through the nostrils by users with headaches. Format: in vivo. The method, then: In the present invention AITC is taken in to its purest form. To treat headache instantly, Purest AITC needs to be inhaled deeply for up to 5 seconds in each nostril. If it is taken correctly, due to its pungency and potency, the vapor of AITC will instantly felt inside on the top of the crown of the user's head.
If AITC is inhaled properly and as directed, most users will be out of irritation in less than 2 minutes.
In current studies we have used pure AITC in above mentioned quantity into small dark thick glass vials with aluminum seal and tight screw caps. The bottles are also very small mouth.

In the case of `C=CCN=C=S` [AITC, Allyl isothiocyanate], the “time until users are out of irritation after inhalation” value (AITC inhaled properly and as directed, most users) is “less than 2 minutes”. Moreover, the “nasal mucus, sinus pressure and sinus headache” value (inhalation) was “relives sinusitis pressure and sinus headaches”. For the same compound, under “inhalation remedy”, the “addiction or rebound headaches” value is on record as “does not lead to addiction or rebound headaches” and the side effects entry was “does not have any side effects”. Moreover, the headache relief result (inhalation, users with headaches) is “headache is also relieved”. The “irritation and lachrymal effect on deep inhalation” value (inhaled deeply) was “instantly irritated and most likely get tears from eyes”. Also, the “natural versus synthetic AITC in treating headaches” value (natural (from mustard seeds, horseradish or wasabi) vs synthetic (99.9% pure)) is “almost same result in treating headaches”. Further, for the setting “pure AITC inhaled as directed, most users suffering with headaches”, the “time to relief from headache pain” value is given as “relived from pain in seconds in most cases or up to couple of minutes”.

For the origin of these results see patent publication US20200138750A1, “Use of Mustard Seed Oil (Allyl Isothiocyanate) to relieve headache pain” (priority 2018, published 2020).
